Marks after values point to notes of the source that are not given here.
Experiments:
M3 muscarinic receptor [1] = molecular target: T1, M3 muscarinic receptor (Homo sapiens, UniProt P20309); format: biochemical; details: CHO-M3 membranes
T1 construct: host or cells: CHO cells, stably transfected; membranes
Source text: Time course of association(6) [drawing 6]
(§1) y, radioligand binding at time x; kobs, observed rate of association; equilibrium binding Beq = Bottom + Span.

M2 muscarinic receptor [2] = molecular target: T2, M2 muscarinic receptor (Homo sapiens, UniProt P08172); test: [35S]GTPγS binding to membranes; format: biochemical; set-up: host or cells: CHO cells, stably transfected; membrane preparation; details: for EMAX of ACh on [^35S]GTPγS binding: fold of basal
T2 sequence (P08172 1-466): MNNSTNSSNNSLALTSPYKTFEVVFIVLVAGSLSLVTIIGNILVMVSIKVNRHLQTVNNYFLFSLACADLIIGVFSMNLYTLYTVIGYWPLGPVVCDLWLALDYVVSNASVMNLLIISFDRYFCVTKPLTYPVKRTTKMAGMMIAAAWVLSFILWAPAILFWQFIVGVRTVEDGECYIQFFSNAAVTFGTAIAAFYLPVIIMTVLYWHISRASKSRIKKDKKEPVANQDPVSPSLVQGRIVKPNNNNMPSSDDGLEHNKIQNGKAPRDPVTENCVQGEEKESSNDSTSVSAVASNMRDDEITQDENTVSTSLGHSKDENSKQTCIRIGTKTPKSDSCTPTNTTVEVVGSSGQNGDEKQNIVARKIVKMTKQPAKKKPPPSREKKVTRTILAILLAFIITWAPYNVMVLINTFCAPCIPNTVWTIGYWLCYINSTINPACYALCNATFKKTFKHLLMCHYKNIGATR
Procedure: (§2) For determination of [^35S]GTPγS binding to G-proteins in membranes a final concentration of 200 pM (M1, M3 and M5 receptors) or 500 pM (M2 and M4 receptors) of [^35S]GTPγS was used. Incubation medium was supplemented with 5 μM (M1, M3 and M5 receptors) or 50 μM (M2 and M4 receptors) GDP. […] Incubation with [^35S]GTPγS was carried out for 20 min and free ligand was removed by filtration as described above. Filtration and washing with ice-cold water lasted for 9 s (wash-aspirate button time).

M2 muscarinic receptor [3] = molecular target: T2, M2 muscarinic receptor; test: [3H]ACh saturation binding; set-up: host or cells: CHO cells, stably transfected; membrane preparation
Source text: BMAX, maximum binding capacity; KD, equilibrium dissociation constant.

M2 muscarinic receptor [4] = molecular target: T2, M2 muscarinic receptor; test: [3H]NMS dissociation
M4 muscarinic receptor [5] = molecular target: T3, M4 muscarinic receptor (Homo sapiens, UniProt P08173); test: [3H]NMS saturation binding
T3 sequence (P08173 1-479): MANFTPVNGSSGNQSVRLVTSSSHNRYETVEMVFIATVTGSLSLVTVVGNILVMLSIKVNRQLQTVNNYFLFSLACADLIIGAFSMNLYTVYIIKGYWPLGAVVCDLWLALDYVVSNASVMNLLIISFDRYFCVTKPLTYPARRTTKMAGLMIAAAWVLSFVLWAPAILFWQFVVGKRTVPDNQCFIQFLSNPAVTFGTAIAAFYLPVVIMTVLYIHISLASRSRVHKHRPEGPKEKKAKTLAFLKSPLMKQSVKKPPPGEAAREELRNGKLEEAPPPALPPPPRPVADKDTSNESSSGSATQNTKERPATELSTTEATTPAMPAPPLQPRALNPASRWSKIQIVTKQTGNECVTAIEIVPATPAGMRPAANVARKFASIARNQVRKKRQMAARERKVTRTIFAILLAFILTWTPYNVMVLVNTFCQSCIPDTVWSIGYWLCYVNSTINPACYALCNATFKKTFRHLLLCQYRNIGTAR

M2 muscarinic receptor [6] = molecular target: T2, M2 muscarinic receptor; test: [3H]ACh association and dissociation kinetics; format: binding; set-up: host or cells: CHO cells, stably transfected; membrane preparation; details: 10 μM rapacuronium, 40 nM [^3H]ACh
Source text: as §1
y, radioligand binding at time x normalized to binding at time 0; koff1 and koff2, dissociation rate constants; f2, fraction of binding site with dissociation rate constant koff2. When both Eq. 7a and 7b were fitted to data the better fit was chosen based on sum of squares F-test and runs test.

M4 muscarinic receptor [7] = molecular target: T3, M4 muscarinic receptor; test: Effect of rapacuronium on high-affinity 20 nM [3H]ACh binding; set-up: host or cells: CHO cells, stably transfected; membranes
Source text: Cooperativity factor greater than 1 denotes negative cooperativity and less than 1 positive cooperativity. Due to its log-normal error distribution factors of cooperativity are expressed as negative logarithms (pα) through the manuscript so negative values denotes negative cooperativity and positive value denotes positive cooperativity.

M5 muscarinic receptor = molecular target: T4, M5 muscarinic receptor (Homo sapiens, UniProt P08912); test: [3H]NMS saturation binding
T4 sequence (P08912 1-532): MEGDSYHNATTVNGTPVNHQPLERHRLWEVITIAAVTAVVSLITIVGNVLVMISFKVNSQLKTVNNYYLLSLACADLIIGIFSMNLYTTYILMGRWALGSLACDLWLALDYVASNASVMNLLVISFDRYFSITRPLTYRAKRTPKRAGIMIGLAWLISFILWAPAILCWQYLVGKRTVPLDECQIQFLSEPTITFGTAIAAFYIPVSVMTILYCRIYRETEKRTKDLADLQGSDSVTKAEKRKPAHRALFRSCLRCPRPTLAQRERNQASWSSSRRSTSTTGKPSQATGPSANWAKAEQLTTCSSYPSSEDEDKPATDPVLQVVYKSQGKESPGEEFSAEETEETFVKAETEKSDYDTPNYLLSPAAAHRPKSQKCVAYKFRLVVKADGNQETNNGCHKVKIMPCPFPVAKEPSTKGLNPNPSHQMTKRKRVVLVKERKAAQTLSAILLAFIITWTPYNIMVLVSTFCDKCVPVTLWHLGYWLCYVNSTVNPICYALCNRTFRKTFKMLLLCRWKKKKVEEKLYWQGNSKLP

[8] = tested on: M1 to M5 muscarinic receptors; test: [35S]GTPγS binding, statements over several subtypes; details: rapacuronium alone
Procedure: as §2

M3 muscarinic receptor [9] = molecular target: T1, M3 muscarinic receptor; test: biochemical; details: for EMAX of ACh on [^35S]GTPγS binding: fold of basal
Procedure: as §2

[10] = rapacuronium alone, normalized to absence of rapacuronium

T1 sequence (P20309 whole entry): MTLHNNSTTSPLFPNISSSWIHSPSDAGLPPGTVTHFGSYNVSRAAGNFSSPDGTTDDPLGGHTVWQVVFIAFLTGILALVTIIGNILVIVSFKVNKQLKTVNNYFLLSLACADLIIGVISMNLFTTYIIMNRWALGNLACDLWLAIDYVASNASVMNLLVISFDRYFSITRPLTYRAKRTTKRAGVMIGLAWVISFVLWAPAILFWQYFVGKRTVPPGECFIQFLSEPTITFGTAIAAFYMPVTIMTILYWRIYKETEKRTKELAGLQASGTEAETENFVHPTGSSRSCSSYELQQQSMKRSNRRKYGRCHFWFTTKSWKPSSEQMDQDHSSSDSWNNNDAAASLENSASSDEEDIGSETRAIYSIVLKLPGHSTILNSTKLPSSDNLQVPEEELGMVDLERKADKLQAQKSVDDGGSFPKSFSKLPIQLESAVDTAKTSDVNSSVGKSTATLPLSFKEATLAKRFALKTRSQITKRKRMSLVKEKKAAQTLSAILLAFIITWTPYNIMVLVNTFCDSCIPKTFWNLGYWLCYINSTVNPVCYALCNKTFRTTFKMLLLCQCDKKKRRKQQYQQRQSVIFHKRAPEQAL

C=CC[N+]1([C@H]2C[C@H]3[C@@H]4CC[C@H]5C[C@H](OC(C)=O)[C@@H](N6CCCCC6)C[C@]5(C)[C@H]4CC[C@]3(C)[C@H]2OC(=O)CC)CCCCC1 [rapacuronium]
effect on rate of [^35S]GTPγS binding (M3 muscarinic receptor [1]; 1 μM rapacuronium alone): slightly decreased
increase in [^35S]GTPγS binding at 5 min incubation (M3 muscarinic receptor [1]; 10 μM ACh + 1 μM rapacuronium): ~5 fold
observed rate (kobs) of [^35S]GTPγS binding (M3 muscarinic receptor [1]; 10 μM ACh + 1 μM rapacuronium): 0.166 ± 0.013 min⁻¹
estimated [^35S]GTPγS equilibrium binding (Beq) (M3 muscarinic receptor [1]; 10 μM ACh with 1 μM rapacuronium): 9,980 ± 120 cpm per well
EMAX of ACh on [^35S]GTPγS binding (M2 muscarinic receptor [2]; + 0.1 μM rapacuronium): 3.10 ± 0.15
EMAX of ACh on [^35S]GTPγS binding (M2 muscarinic receptor [2]; + 1 μM rapacuronium): 2.93 ± 0.13
EMAX of ACh on [^35S]GTPγS binding (M2 muscarinic receptor [2]; + 10 μM rapacuronium): 2.46 ± 0.18
EMAX of rapacuronium on [^35S]GTPγS binding (M2 muscarinic receptor [2]; [10]): 0.84 ± 0.06
EC50 (M2 muscarinic receptor [2]; rapacuronium alone, read-out: pEC50 of rapacuronium on [^35S]GTPγS binding (converted)): 28.2 µM
BMAX of [^3H]ACh (M2 muscarinic receptor [3]; + 10 μM rapacuronium): 0.74 ± 0.07 fmol/μg of protein
BMAX of [^3H]ACh (M2 muscarinic receptor [3]; + 100 μM rapacuronium): 0.77 ± 0.08 fmol/μg of protein
decrease in rate of [^3H]NMS dissociation (M2 muscarinic receptor [4]; 100 μM rapacuronium): 7 fold
f2, fraction of sites with faster dissociation (M2 muscarinic receptor [4]; + 100 μM rapacuronium): 23 ± 5%
koff1 of [^3H]NMS dissociation (M2 muscarinic receptor [4]; + 100 μM rapacuronium): 0.026 ± 0.002* min^-1
koff2 of [^3H]NMS dissociation (M2 muscarinic receptor [4]; + 100 μM rapacuronium): 0.0127 ± 0.00183 s⁻¹
BMAX of [^3H]NMS (M4 muscarinic receptor [5]; + 10 μM rapacuronium): 1.17 ± 0.13 fmol/μg of protein
BMAX of [^3H]NMS (M4 muscarinic receptor [5]; + 100 μM rapacuronium): 1.06 ± 0.10 fmol/μg of protein
time of peak of [^3H]ACh association (M2 muscarinic receptor [6]): around 90 seconds
pα, cooperativity with [^3H]ACh high affinity binding (M4 muscarinic receptor [7]; M4, negative value = negative cooperativity): -1.51 ± 0.05
Kd (M4 muscarinic receptor [7]; read-out: pKA of rapacuronium (converted)): 3.89 µM
BMAX of [^3H]NMS (M5 muscarinic receptor; + 10 μM rapacuronium): 1.53 ± 0.15 fmol/μg of protein
BMAX of [^3H]NMS (M5 muscarinic receptor; + 100 μM rapacuronium): 1.33 ± 0.13 fmol/μg of protein
maximal lowering of [^35S]GTPγS binding ([8]; even-numbered subtypes): ~15%
maximal lowering of [^35S]GTPγS binding ([8]; odd-numbered subtypes): approximately 25%
decrease in ACh EC50 (M3 muscarinic receptor [9]; 0.1 μM rapacuronium): 2 fold
decrease in ACh EC50 (M3 muscarinic receptor [9]; 1 μM rapacuronium): 2 fold
increase in ACh EC50 (M3 muscarinic receptor [9]; 10 μM rapacuronium): about 3 fold
EMAX of ACh on [^35S]GTPγS binding (M3 muscarinic receptor [9]; + 0.1 μM rapacuronium): 2.78 ± 0.11
EMAX of ACh on [^35S]GTPγS binding (M3 muscarinic receptor [9]; + 1 μM rapacuronium): 2.52 ± 0.08
EMAX of ACh on [^35S]GTPγS binding (M3 muscarinic receptor [9]; + 10 μM rapacuronium): 2.12 ± 0.09
EMAX of rapacuronium on [^35S]GTPγS binding (M3 muscarinic receptor [9]; [10]): 0.75 ± 0.07
EC50 (M3 muscarinic receptor [9]; rapacuronium alone, read-out: EC50 of lowering [^35S]GTPγS binding): 76 µM
Emax at 0.1 µM (M3 muscarinic receptor [9]; read-out: increase in ACh EMAX, 0.1 μM rapacuronium): ~60%
Emax at 1 µM (M3 muscarinic receptor [9]; read-out: increase in ACh EMAX, 1 μM rapacuronium): ~35%

Reference: paper PMC2806265, “Divergence of allosteric effects of rapacuronium on binding and function of muscarinic receptors” (BMC Pharmacology, 2009)
